Laboratory results as given in patent publication US5723103A, “Substituted benzamides and radioligand analogs and methods of use” (Vanderbilt University, priority 1994, dated 1998).
Where two headings read alike, the source gives them in different places.

Columns and labels:
[1] = Apparent lipophilicity from reverse-phase HPLC at pH 7.4; format: physicochemical; conditions: not told
Description: (b) Extrapolated reverse phase capacity factors in MOPS buffer at pH 7.4.

5-HT-3 receptor [2] = conditions: literature, cited from earlier work
emesis = conditions: literature; cited from earlier work
drug-induced anxiety = conditions: literature; cited from earlier work
5-HT-3 receptor [3] = target: T1, 5-HT-3 receptor (Rattus norvegicus, UniProt P35563)
T1 sequence (P35563 24-483): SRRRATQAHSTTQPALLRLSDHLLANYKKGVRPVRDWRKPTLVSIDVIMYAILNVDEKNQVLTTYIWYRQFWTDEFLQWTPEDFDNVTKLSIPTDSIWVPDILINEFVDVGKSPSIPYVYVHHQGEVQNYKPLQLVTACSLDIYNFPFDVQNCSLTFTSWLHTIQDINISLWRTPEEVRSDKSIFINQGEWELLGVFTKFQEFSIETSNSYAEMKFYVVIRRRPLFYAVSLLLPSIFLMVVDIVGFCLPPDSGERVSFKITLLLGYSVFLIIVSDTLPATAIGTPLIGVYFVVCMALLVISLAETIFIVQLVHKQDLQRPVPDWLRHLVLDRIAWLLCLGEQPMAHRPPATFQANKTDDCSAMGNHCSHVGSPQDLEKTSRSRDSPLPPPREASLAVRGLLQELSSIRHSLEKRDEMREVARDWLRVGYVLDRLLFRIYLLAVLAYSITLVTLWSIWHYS
Description: Evaluation of the compounds of the present invention was performed by incubating the radiolabeled agent with tissue homogenates known to contain these receptors. By inhibiting the binding with various concentrations of competing ligands the relative potencies of unlabeled analogs were determined. The apparent lipophilicities of the compounds of the invention were estimated from the retention times in reverse-phase HPLC at pH 7.4.

5-HT-3 receptor [4] = target: T1, 5-HT-3 receptor; format: binding; design: from tissue; host or cells: rat entorhinal cortex homogenate / membranes; conditions: rat entorhinal cortex
Description: In all FIGS. 1-3, triangles represent total binding, open circles represent non-specific binding, and darkened circles represent specific binding.

animal behavioral models = conditions: literature; cited from earlier work
[5] = extrapolated reverse phase capacity factors in MOPS buffer, read-out: log Papp (apparent lipophilicity)
[6] = Ki, displacement of 0.64 nM [^125 I]-4 binding, Table 3, rat entorhinal cortex homogenate, HEPES buffer, nine concentrations 0.3 to 300 nM, triplicates

Row | Compound | chromatographic logD [1, 5] | further results
1 | CCOc1ccc(I)cc1C(=O)N[C@@H]1CN2CCC1CC2 [TDP 916] | 2.38 | –
2 | COc1cc(N)c(Cl)cc1C(=O)N[C@@H]1CN2CCC1CC2 [(S)-zacopride, 5-chloro-4-amino-2-methoxy-N-(3-quinuclidinyl)benzamide] | – | Ki (5-HT-3 receptor [2]; (S)-form of zacopride): 0.3 nM; antiemetic activity (emesis): effective antiemetic agent; block of drug-induced anxiety (drug-induced anxiety): inactive; Ki (5-HT-3 receptor [3]; [6]): 0.38 nM
3 | C=CCOc1c(I)cc(Cl)cc1C(=O)N[C@@H]1CN2CCC1CC2 [TDP 1046] | 2.63 | –
4 | O=C(N[C@@H]1CN2CCC1CC2)c1cc(I)ccc1OCCCF [TDP 921] | 2.44 | –
5 | CCN1CCC[C@H]1CNC(=O)c1cc(I)cc(OC)c1OC [epidepride] | – | Ki (5-HT-3 receptor [3]): 1040 nM
6 | C#CCOc1c(I)cc(Cl)cc1C(=O)N[C@@H]1CN2CCC1CC2 [TDP 1053] | 2.57 | –
7 | COc1ccc(Br)cc1C(=O)N[C@@H]1CN2CCC1CC2 [TDP 922] | 2.02 | –
8 | COc1cc([125I])cc(C(=O)N[C@@H]2CN3CCC2CC3)c1OC [[^125 I]-4, (S)-N-[3-(1-azabicyclo[2.2.2]octyl)]-2,3-dimethoxy-5-[^125 I]iodobenzamide] | – | Kd (5-HT-3 receptor [4]): 1.5 nM
9 | COc1cc(Br)cc(C(=O)N[C@@H]2CN3CCC2CC3)c1OC [TDP 923] | 1.74 | –
10 | CN1[C@@H]2CC[C@H]1C[C@@H](OC(=O)c1cc(Cl)cc(Cl)c1)C2 [bemestron] | – | Ki (5-HT-3 receptor [3]; [6]): 18.3 nM
11 | CC(C)Oc1ccc(I)cc1C(=O)N[C@@H]1CN2CCC1CC2 [TDP 919] | 2.52 | –
12 | CCOc1cc(Br)cc(C(=O)N[C@@H]2CN3CCC2CC3)c1OC [TDP 924] | 2.14 | –
13 | CCOc1c(OC)cc(I)cc1C(=O)N[C@@H]1CN2CCC1CC2 [TDP 1022] | 2.19 | –
14 | O=C(N[C@@H]1CN2CCC1CC2)c1cc(I)ccc1OCCF [TDP 920] | 2.15 | –
15 | O=C(N[C@@H]1CN2CCC1CC2)c1cc(Cl)cc(I)c1OCCCF [TDP 1050] | 2.38 | –
16 | CCOc1c(I)cc(Cl)cc1C(=O)N[C@@H]1CN2CCC1CC2 [TDP 1059] | 2.47 | –

Row | Compound | chromatographic logD [1, 5] | further results
17 | CCCOc1c(I)cc(Cl)cc1C(=O)N[C@@H]1CN2CCC1CC2 [TDP 1065] | 2.7 | –
18 | CCCOc1ccc(I)cc1C(=O)N[C@@H]1CN2CCC1CC2 [TDP 9l7] | 2.81 | –
19 | COc1cc(I)cc(C(=O)N[C@H]2CN3CCC2CC3)c1OC [TDP 991, (R)-N-[3-1-Azabicyclo [2.2.2.]octyl]-5-iodo-2,3-dimethoxy-benzamide] | 1.87 | Ki (5-HT-3 receptor [3]; [6]): 19 nM
20 | COc1cc(Cl)cc(C(=O)N[C@@H]2CN3CCC2CC3)c1OCCF [TDP 994] | 1.58 | –
21 | COc1c(OCCF)cc(Cl)cc1C(=O)N[C@@H]1CN2CCC1CC2 [TDP 999] | 1.7 | –
22 | COc1ccc(F)cc1C(=O)N[C@@H]1CN2CCC1CC2 [TDP 1087] | 1.34 | –
23 | O=C(N[C@@H]1CN2CCC1CC2)c1cc(Cl)cc(I)c1OCCF [TDP 1056] | 1.95 | –
24 | COc1cc(N)c(Cl)cc1C(=O)N[C@H]1CN2CCC1CC2 [(R)-zacopride, 5-chloro-4-amino-2-methoxy-N-(3-quinuclidinyl)benzamide] | – | affinity for the 5-HT-3 receptor relative to (S)-zacopride (5-HT-3 receptor [2]): ten times lower affinity; cognitive-enhancing properties (animal behavioral models): shows cognitive-enhancing properties; block of drug-induced anxiety (drug-induced anxiety): able to block drug-induced anxiety
25 | COc1cc(I)cc(C(=O)N[C@@H]2CN3CCC2CC3)c1OC [TDP 960] | 1.87 | Ki (5-HT-3 receptor [3]; [6]): 1.35 nM
26 | c1ccc2nc(N3CCNCC3)ccc2c1 [quipazine] | – | Ki (5-HT-3 receptor [3]; [6]): 0.48 nM
27 | COc1ccc(I)cc1C(=O)N[C@@H]1CN2CCC1CC2 [TDP 915] | 2.15 | –
28 | C=CCOc1ccc(I)cc1C(=O)N[C@@H]1CN2CCC1CC2 [TDP 918] | 2.76 | –
29 | COc1c(I)cc(Cl)cc1C(=O)N[C@@H]1CN2CCC1CC2 [TDP 1040] | – | chromatographic logD [1]: 2.34
30 | CC(C)Oc1c(I)cc(Cl)cc1C(=O)N[C@@H]1CN2CCC1CC2 [TDP 1062] | 2.45 | –
31 | COc1cc(Cl)cc(C(=O)N[C@@H]2CN3CCC2CC3)c1OC/C=C/I [TDP 984] | 2.58 | –
